Laboratory results taken from patent US7115620B2, “1,3-disubstituted-2-thioxo-imidazolidine-4,5-diones as potassium channel openers” (Wyeth, priority 2001, dated 2006).

Tests used:
[1] = system: isolated rat bladder strips; assay: Inhibition of contractions in isolated rat bladder strips; conditions: 15 mM KCl-enhanced contractile activity; for IC50: 0.5 h, 30 minute challenge; for inhibition at 30 µM: read-out: % Inhibition @ 30 μM (maximum percentage inhibition of contractile activity)
From the text: Sprague-Dawley rats (150–200 g) were rendered unconscious by CO2 asphyxiation and then euthanized by cervical dislocation. The bladder was removed into warm (37 deg.C.) physiological salt solution (PSS) of the following composition (mM): NaCl, 118.4; KCl, 4.7; CaCl2, 2.5; […]; NaHCO3, 24.9; KH2PO4, 1.2; glucose, 11.1; EDTA, 0.023; gassed with 95% O2; […]; pH 7.4. The bladder was opened and then cut into strips 1–2 mm in width and 7–10 mm in length. The strips are subsequently suspended in a 10 mL tissue bath under an initial resting tension of 1.5 g. The strips were held in place by two surgical clips one of which is attached to a fixed hook while the other is attached to an isometric force transducer. […] The carbachol was then washed out and the tissue allowed to relax to its resting level of activity. Following a further 30 minute period of recovery an additional 15 mM KCl were introduced into the tissue bath. […] Following stabilization of this enhanced level of contractile activity, incremental increases in the concentration of test compound or vehicle were introduced into the tissue bath. Contractile activity was measured for each compound or vehicle concentration during the last minute of a 30 minute challenge.
The isometric force developed by the bladder strips was measured using a […] to elicit 50% inhibition of pre-drug contractile activity (IC50 concentration) and was calculated from this concentration-response curve.

Row | IC50 [1] | melting point | SMILES | inhibition at 30 µM [1]
1 | 3.4 ± 0.8 µM | 128 to 129 °C | CC(C)(C)CN1C(=O)C(=O)N(c2ccc(C#N)cc2)C1=S [Example 2, 4-[3-(2,2-Dimethyl-propyl)-4,5-dioxo-2-thioxo-imidazolidin-1-yl]-benzonitrile] | 
2 |  | 244 to 246 °C | CN(C)c1ccc(N2C(=O)C(=O)N(CC(C)(C)C)C2=S)cc1.Cl [Example 9, 1-(4-Dimethylamino-phenyl)-3-(2,2-dimethyl-propyl)-2-thioxo-imidazolidine-4,5-dione Hydrochloride] | 33.2%
3 |  | 156.2 to 156.9 °C | CC(C)(C)CN1C(=O)C(=O)N(c2ccc(F)cc2F)C1=S [Example 11, 1-(2,4-Difluoro-phenyl)-3-(2,2-dimethyl-propyl)-2-thioxo-imidazolidine-4,5-dione] | 30.6%
4 |  | 198.8 to 199.5 °C | CC(N1C(=O)C(=O)N(c2ccc(Cl)cc2)C1=S)C(C)(C)C (stereo not shown) [Example 12, 1-(4-Chloro-phenyl)-2-thioxo-3-(1,2,2-trimethyl-propyl)-imidazolidine-4,5-dione] | 24.3%
5 |  | 165.2 to 166.3 °C | CC(C)(C)CN1C(=O)C(=O)N(c2ccc(F)cc2)C1=S [Example 14, 1-(2,2-Dimethyl-propyl)-3-(4-fluoro-phenyl)-2-thioxo-imidazolidine-4,5-dione] | 15%
6 | 3.6 ± 0.8 µM | 111.4 to 112.8 °C | CC(C)(C)CN1C(=O)C(=O)N(c2cccnc2)C1=S [Example 15, 1-(2,2-Dimethyl-propyl)-3-pyridin-3-yl-2-thioxo-imidazolidine-4,5-dione] | 

More lines, now with the values behind:

Row | SMILES | IC50 [1] | melting point | inhibition at 30 µM [1]
7 | CC(N1C(=O)C(=O)N(c2ccc(C#N)cc2)C1=S)C(C)(C)C (racemic) [Example 1, 4-[4,5-Dioxo-2-thioxo-3-(1,2,2-trimethyl-propyl)-imidazolidin-1-yl]-benzonitrile] | 3.3 ± 0.08 µM | 219.6 to 219.9 °C | 
8 | CCC(C)(C)N1C(=O)C(=O)N(c2ccc(C#N)cc2)C1=S [Example 3, 4-[3-(1,1-Dimethyl-propyl)-4,5-dioxo-2-thioxo-imidazolidin-1-yl]-benzonitrile] | 25.7 ± 3.7 µM | 173.1 to 174.3 °C | 
9 | CC(C)(C)N1C(=O)C(=O)N(c2ccc(C#N)cc2)C1=S [Example 4, 4-(3-tert-Butyl-4,5-dioxo-2-thioxo-imidazolidin-1-yl)-benzonitrile] | 30 ± 5 µM | 200.4 to 201.3 °C | 
10 | CCc1cc(C#N)ccc1N1C(=O)C(=O)N(C(C)(C)CC)C1=S [Example 5, 4-[3-(1,1-Dimethyl-propyl)-4,5-dioxo-2-thioxo-imidazolidin-1-yl]-3-ethyl-benzonitrile] | 28.9 ± 2.6 µM | 172.8 to 173.3 °C | 
11 | C[C@@H](N1C(=O)C(=O)N(c2ccc(C#N)cc2)C1=S)C(C)(C)C [Example 6, 4-[4,5-Dioxo-2-thioxo-3-((1R)-1,2,2-trimethyl-propyl)-imidazolidin-1-yl]-benzonitrile] | 4.2 ± 1.4 µM | 197.6 to 197.8 °C | 
12 | CC(N1C(=O)C(=O)N(c2cccc(C#N)c2)C1=S)C(C)(C)C (stereo not shown) [Example 7, 3-[4,5-Dioxo-2-thioxo-3-(1,2,2-trimethyl-propyl)-imidazolidin-1-yl]-benzonitrile] |  | 168.1 to 168.7 °C | 29.2%
13 | CC(N1C(=O)C(=O)N(c2ccc(Br)cc2)C1=S)C(C)(C)C (stereo not shown) [Example 8, 1-(4-Bromo-phenyl)-2-thioxo-3-(1,2,2-trimethyl-propyl)-imidazolidine-4,5-dione] | 27.2 µM | 207.1 to 207.9 °C | 22.4%
14 | CC(N1C(=O)C(=O)N(c2ccc(F)cc2F)C1=S)C(C)(C)C (stereo not shown) [Example 10, 1-(2,4-Difluoro-phenyl)-2-thioxo-3-(1,2,2-trimethyl-propyl)-imidazolidine-4,5-dione] |  | 155.2 to 156 °C | 23.1%
15 | CC(N1C(=O)C(=O)N(c2ccc(C(C)(C)C)cc2)C1=S)C(C)(C)C (stereo not shown) [Example 13, 1-(4-tert-Butyl-phenyl)-2-thioxo-3-(1,2,2-trimethyl-propyl)-imidazolidine-4,5-dione] |  | 208.9 to 209.5 °C | 18.3%
